Results published in patent publication US12083140B2, “Pharmaceutical composition for preventing and treating glaucoma, containing adenosine derivative” (FUTURE MEDICINE CO., LTD., priority 2017, dated 2024).
Values belong to the molecule of their own block, whether it stands above or below them.

Columns and labels:
TIMP (TIMP 1, TIMP2) = experiment: TIMP enzyme protein and mRNA expression in trabecular meshwork tissue; format: in vivo, C57BL/6J mice; details: Example 2 oral 20 mg/kg once a day and 10 mg/kg twice a day; acetazolamide 4.17 mg/kg once a day
Method: (§1) In Experimental Example 10, the expression amounts of these proteins and mRNAs in MMP and TIMP enzymes were measured for the eye tissues of the respective laboratory animals which the measurement of the intraocular pressure was completed, and the results are shown in FIG. 14 to FIG. 17. FIG. 14 and FIG. 15 show protein expression amounts of MMP (MMP2, MMP9) and TIMP (TIMP 1, TIMP2) enzymes, respectively. FIG. 16 and FIG. 17 show mRNA expression levels. In FIG. 14 to FIG. 17, Normal represents the expression level of the animal to which the dexamethasone was not treated in Experimental Example 10, Control represents the expression level of the animal to which only the excipient was administered in Experimental Example 10, and Acetazolamide represents the expression level of the animal to which acetazolamide was administered in Experimental Example 10.

[1] = test system: extracellular matrix proteins (Fibronectin, SMA and MYOC); experiment: Anti-fibrotic effect on trabecular meshwork tissue (immunostaining); format: in vivo, C57BL/6J mice; details: Example 2 oral 20 mg/kg once a day and 10 mg/kg twice a day; acetazolamide 4.17 mg/kg once a day
Method: In Experimental Example 10, the ocular tissues of each laboratory animal after measurement of intraocular pressure were extracted and sectioned and immunostaining using antibody was performed to confirm the expression of extracellular matrix proteins (Fibronectin, SMA and MYOC) and the results are shown in FIG. 13. In FIG. 13, Normal represents the trabecular meshwork of the animal which dexamethasone was not treated with in Experimental Example 10, Control represents the trabecular meshwork tissue of the animal to which only the excipient was administered in Experimental Example 10, Acetazolamide represents the trabecular meshwork tissue of the animal to which acetazolamide was administered in Experimental Example 10. Fluorescently stained tissue was observed under fluorescence microscope under the same conditions (magnification 200×, exposure time 1 sec).

MMP (MMP2, MMP9) = experiment: MMP enzyme protein and mRNA expression in trabecular meshwork tissue; format: in vivo, C57BL/6J mice; details: Example 2 oral 20 mg/kg once a day and 10 mg/kg twice a day; acetazolamide 4.17 mg/kg once a day
Method: as §1

[2] = test system: TPA-induced mouse ear edema; experiment: Anti-inflammatory activity, TPA-induced mouse ear edema; format: in vivo, ICR mice; details: for TPA-induced mouse ear edema: 0.5% in acetone
Method: In order to investigate the anti-inflammatory activity of the derivatives of the present invention, the animal experiments were performed as below. Seven-week-old male ICR mice were treated with TPA (12-O-tetradecanoylphorbol 13-acetate, […]) in the right ear. […] The same experiment was performed by treating hydrocortisone used as a treatment agent for inflammation as a control at the same concentration.
Subsequently, secondly, the adenosine derivative compound of the present invention was treated after 6 hours from TPA treatment. Twenty-four hours after TPA treatment, the animals were euthanized using the cervical dislocation method. Then, a right ear sample was obtained using a 6 mm diameter punch. The activity could be confirmed by weighing using a microbalance. The inhibition rate (%) was calculated using the following Equation 1.

[3] = target: T1, human adenosine A2B receptor (Homo sapiens, UniProt P29275); experiment: Agonist or antagonist activity at human adenosine A2B receptor; format: biochemical
T1 sequence (P29275 1-332): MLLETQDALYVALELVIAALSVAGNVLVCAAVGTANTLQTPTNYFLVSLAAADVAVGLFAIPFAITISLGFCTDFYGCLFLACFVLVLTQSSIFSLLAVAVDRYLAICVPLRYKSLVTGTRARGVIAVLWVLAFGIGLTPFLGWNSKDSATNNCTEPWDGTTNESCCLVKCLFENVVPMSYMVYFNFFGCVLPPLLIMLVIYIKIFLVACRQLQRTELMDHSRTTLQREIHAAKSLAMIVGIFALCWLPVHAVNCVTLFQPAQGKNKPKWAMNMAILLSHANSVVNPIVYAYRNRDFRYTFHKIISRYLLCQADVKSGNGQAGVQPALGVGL

[4] = target: T2, human adenosine A3 receptor (Homo sapiens, UniProt P0DMS8); experiment: Antagonistic effect and cAMP inhibition test on adenosine A3 receptor (CHO cells, Cl-IB-MECA, Schild analysis); format: cell-based; details: different concentrations
T2 construct: expressed in transfected cells; host or cells: CHO (ATCC CCL-61)
T2 sequence (P0DMS8 1-318): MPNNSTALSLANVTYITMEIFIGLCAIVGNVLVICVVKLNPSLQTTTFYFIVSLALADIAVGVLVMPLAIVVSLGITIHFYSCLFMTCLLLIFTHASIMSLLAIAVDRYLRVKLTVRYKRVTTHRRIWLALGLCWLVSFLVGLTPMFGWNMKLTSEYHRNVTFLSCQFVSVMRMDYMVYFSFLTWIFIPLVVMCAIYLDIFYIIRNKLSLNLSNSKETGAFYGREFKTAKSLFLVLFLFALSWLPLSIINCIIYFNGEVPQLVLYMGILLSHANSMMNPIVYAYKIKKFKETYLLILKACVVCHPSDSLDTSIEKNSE

[5] = target: T3, adenosine A3 receptor in rats expressed in Chinese hamster ovary (CHO) cells (Rattus norvegicus, UniProt P28647); experiment: Binding affinity for rat adenosine A3 receptor expressed in CHO cells
T3 construct: expressed in transfected cells; host or cells: CHO
T3 sequence (P28647 1-320): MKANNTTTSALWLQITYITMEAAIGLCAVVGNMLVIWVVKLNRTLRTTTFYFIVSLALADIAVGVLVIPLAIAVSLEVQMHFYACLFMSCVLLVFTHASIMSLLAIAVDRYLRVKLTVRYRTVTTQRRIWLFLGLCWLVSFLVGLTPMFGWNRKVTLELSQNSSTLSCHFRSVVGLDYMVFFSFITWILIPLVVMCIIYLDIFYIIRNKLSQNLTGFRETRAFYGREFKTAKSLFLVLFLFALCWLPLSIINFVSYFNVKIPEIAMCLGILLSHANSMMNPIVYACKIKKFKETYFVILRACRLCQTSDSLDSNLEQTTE

[6] = target: T4, human adenosine A3 receptor (hA3) (Homo sapiens, UniProt P0DMS8); experiment: Binding affinity for human adenosine A3 receptor (CHO cells, [125I]AB-MECA); details: read-out: K(nM) hA3
T4 construct: expressed in transfected cells; host or cells: CHO (ATCC CCL-61)
T4 sequence (P0DMS8 1-318): T2 sequence (P0DMS8 1-318)

[7] = target: T5, human adenosine A2A receptor (hA2A) (Homo sapiens, UniProt P29274); experiment: Binding affinity for human adenosine A2A receptor (HEK 293 cells, [3H]CGS-21680); details: test concentration not given
T5 construct: expressed in transfected cells; host or cells: HEK 293
T5 sequence (P29274 whole entry): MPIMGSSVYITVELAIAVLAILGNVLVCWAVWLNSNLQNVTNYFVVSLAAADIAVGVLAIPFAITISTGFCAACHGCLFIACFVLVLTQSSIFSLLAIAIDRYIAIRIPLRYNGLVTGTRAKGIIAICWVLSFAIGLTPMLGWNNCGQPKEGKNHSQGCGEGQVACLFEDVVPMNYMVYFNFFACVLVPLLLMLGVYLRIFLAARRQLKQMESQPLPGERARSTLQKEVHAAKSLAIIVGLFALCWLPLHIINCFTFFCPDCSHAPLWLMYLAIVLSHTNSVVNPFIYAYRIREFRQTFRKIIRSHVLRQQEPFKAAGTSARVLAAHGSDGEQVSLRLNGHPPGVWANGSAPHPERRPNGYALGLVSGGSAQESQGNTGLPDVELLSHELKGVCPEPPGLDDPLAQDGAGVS

[8] = target: T6, human adenosine A1 receptor (hA1) (Homo sapiens, UniProt P30542); experiment: Binding affinity for human adenosine A1 receptor (CHO cells, [3H]CCPA); details: test concentration not given
T6 construct: expressed in transfected cells; host or cells: CHO (ATCC CCL-61)
T6 sequence (P30542 1-326): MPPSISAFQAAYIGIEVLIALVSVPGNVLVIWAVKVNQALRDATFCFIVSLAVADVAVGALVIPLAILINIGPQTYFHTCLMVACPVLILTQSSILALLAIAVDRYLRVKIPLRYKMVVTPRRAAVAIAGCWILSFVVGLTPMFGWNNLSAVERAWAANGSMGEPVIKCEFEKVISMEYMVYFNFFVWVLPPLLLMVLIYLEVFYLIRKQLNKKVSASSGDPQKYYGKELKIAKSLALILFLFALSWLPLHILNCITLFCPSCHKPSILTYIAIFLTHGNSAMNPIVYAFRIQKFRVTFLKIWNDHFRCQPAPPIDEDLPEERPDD

[9] = 0.5% in mixed solvent of distilled water and acetone (1:4)
[10] = 0.5% in mixed solvent of DMSO and acetone (1:9)

Molecule: CC(=O)Nc1nnc(S(N)(=O)=O)s1 [acetazolamide, reference compound]
- protein and mRNA expression levels of TIMP enzyme compared with the normal group (TIMP (TIMP 1, TIMP2)): significantly increased
- expression of fibronectin, SMA and MYOC protein in trabecular meshwork tissue [1]: increased expression
- protein and mRNA expression levels of MMP enzyme compared with the normal group (MMP (MMP2, MMP9)): significantly decreased

- melting point: 184 to 185 °C
Molecule: O[C@@H]1[C@H](O)CS[C@H]1n1cnc2c(NCc3cccc(Br)c3)nc(Cl)nc21 [Example 3, (2R,3R,4S)-2-(2-chloro-6-(3-bromobenzylamino)-9H-purin-9-yl)tetrahydrothiophene-3,4-diol]
- TPA-induced mouse ear edema [2]: reduced by a small amount

- melting point: 254 to 256.9 °C
Molecule: O=C(O)c1cccc(CNc2nc(Cl)nc3c2ncn3[C@@H]2SC[C@H](O)[C@@H]2O)c1 [Example 9, 3-((2-chloro-9-((2R,3S,4R)-3,4-dihydroxytetrahydrothiophen-2-yl)-9H-purin-6-ylamino)methyl)benzoic acid]

- melting point: 198.7 to 199.7 °C
Molecule: O[C@@H]1[C@H](O)CS[C@H]1n1cnc2c(NCc3ccccc3Cl)nc(Cl)nc21 [Example 5, (2R,3R,4S)-2-(2-chloro-6-(2-chlorobenzylamino)-9H-purin-9-yl) tetrahydrothiophene-3,4-diol]
- inflammation inhibition rate [2, 9]: 17%

- melting point: 188 °C
Molecule: COc1ccccc1CNc1nc(Cl)nc2c1ncn2[C@@H]1SC[C@@H](O)[C@H]1O [Example 7, (2R,3R,4S)-2-(2-chloro-6-(2-methoxybenzylamino)-9H-purin-9-yl)tetrahydrothiophene-3,4-diol]
- inflammation inhibition rate [2, 9]: 53%

- melting point: 183 to 184 °C
Molecule: O[C@@H]1[C@H](O)CS[C@H]1n1cnc2c(NCc3cccc(Br)c3)ncnc21 [Example 13, (2R,3R,4S)-2-(6-(3-bromobenzylamino)-9H-purin-9-yl)tetrahydrothiophene-3,4-diol]

- melting point: 181.5 to 181.7 °C
Molecule: O[C@@H]1[C@H](O)CO[C@H]1n1cnc2c(NCc3cccc(Br)c3)nc(Cl)nc21 [Example 15, (2R,3R,4R)-2-(6-(3-bromobenzylamino)-2-chloro-9H-purin-9-yl)tetrahydrofuran-3,4-diol]
- inflammation inhibition rate [2, 10]: 59%

- melting point: 183.2 to 183.5 °C
Molecule: O[C@@H]1[C@H](O)CS[C@H]1n1cnc2c(NCc3cccc(F)c3)nc(Cl)nc21 [Example 1, (2R,3R,4S)-2-(2-chloro-6-(3-fluorobenzylamino)-9H-purin-9-yl)tetrahydrothiophene-3,4-diol]

- melting point: 198.8 to 199.8 °C
Molecule: O[C@@H]1[C@H](O)CS[C@H]1n1cnc2c(NCc3cccc(I)c3)ncnc21 [Example 14, (2R,3R,4S)-2-(6-(3-iodobenzylamino)-9H-purin-9-yl) tetrahydrothiophene-3,4-diol]

- effect of the agonist Cl-IB-MECA in CHO cells treated with the compound [4]: inhibited depending on the concentration
- Ki [5]: 0.00389 ± 0.00115 µM
Molecule: O[C@@H]1[C@H](O)CS[C@H]1n1cnc2c(NCc3cccc(I)c3)nc(Cl)nc21 [Example 4, (2R,3R,4S)-2-(2-chloro-6-(3-iodobenzylamino)-9H-purin-9-yl)tetrahydrothiophene-3,4-diol]
- activity as an agonist or an antagonist at human adenosine A2B receptor [3]: did not show activity as an agonist or an antagonist
- TPA-induced mouse ear edema [2]: reduced by a small amount
- TPA-induced mouse ear edema ([2]; listed as compound 4): had an effect of reducing edema

- melting point: 195.5 to 195.8 °C
Molecule: O[C@@H]1[C@H](O)CO[C@H]1n1cnc2c(NCc3cccc(I)c3)nc(Cl)nc21 [Example 16, (2R,3R,4R)-2-(6-(3-iodobenzylamino)-2-chloro-9H-purin-9-yl)tetrahydrofuro-3,4-diol]
- inflammation inhibition rate [2, 10]: 79%

- Ki [6]: 24.8 ± 8.1 nM
- % hA2A [7]: −8.3%
- % hA1 [8]: 22.0%
Molecule: (2R,3R,4S)-2-(2-chloro-6-(naphthalen-1-ylmethylbenzylamino)-9H-purin-9-yl)tetrahydrothiophene-3,4-diol [Example 8]

- melting point: 188.8 to 189.8 °C
Molecule: COc1ccc(Cl)cc1CNc1nc(Cl)nc2c1ncn2[C@@H]1SC[C@@H](O)[C@H]1O [Example 6, (2R,3R,4S)-2-(2-chloro-6-(5-chloro-2-methoxybenzylamino)-9H-purin-9-yl)tetrahydrothiophene-3,4-diol]
- inflammation inhibition rate [2, 9]: 34%
